Patent US11109593B2, “Isoxazolin-5-one derivative and herbicide containing same as active ingredient” (HOKKO CHEMICAL INDUSTRY CO., LTD., priority 2017, dated 2021)

Columns and labels:
Type in all cases: in vivo
Echinochloa crus-galli [1] = assay: Test Example 1: herbicidal effect test by treatment of rice paddy soil (immediately after seeding); conditions: 120 g/10a active ingredient, dry weight vs untreated area, 14 days after treatment
How it was run: (§1)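 Values are herbicidal rates (%) derived from average plant dry weight in treated versus untreated pots 14 days after treatment, run in duplicate. Treatment was a water-diluted emulsion dropped into flooded paddy soil right after sowing, at 120 g active ingredient per 10 ares.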

Scirpus juncoides [2] = assay: as above; conditions: 120 g/10a active ingredient, dry weight vs untreated area, 14 days after treatment
How it was run: as §1

[3] = test system: broad leaf weeds (Lindernia pyxidaria and Monochoria vaginalis); assay: as above; conditions: 120 g/10a active ingredient, dry weight vs untreated area, 14 days after treatment
How it was run: as §1

Echinochloa crus-galli [4] = assay: Test Example 2: herbicidal effect test by treatment during growing period in paddy rice cultivation (seven days after seeding); conditions: 120 g/10a active ingredient, assessed 14 days after treatment, dry weight vs untreated area
How it was run: (§2)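 Herbicidal rate = (1 − treated/untreated mean dry weight) × 100, scored 14 days after application, two replicates per rate. Treatment: diluted emulsion dropped onto paddy water seven days after sowing, 120 g active ingredient per 10 ares, in a glass greenhouse.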

Scirpus juncoides [5] = assay: as above; conditions: 120 g/10a active ingredient, assessed 14 days after treatment, dry weight vs untreated area
How it was run: as §2

[6] = test system: broad leaf weeds (Lindernia pyxidaria and Monochoria vaginalis); assay: as above; conditions: 120 g/10a active ingredient, assessed 14 days after treatment, dry weight vs untreated area
How it was run: as §2

Amaranthus viridis [7] = assay: Test Example 3: herbicidal effect test by treatment of dry field farming soil (one day after seeding); conditions: 120 g/10a active ingredient, evaluated 14 days after treatment
How it was run: (§3)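 Seeds (20 each) mixed into top 1 cm of alluvium in pots, surface pressed. One day later, diluted emulsion sprayed onto soil, 100 L/10 a, 120 g a.i./10 a. Dry weight at 14 d vs untreated gave % herbicidal rate; n=2.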

Chenopodium album [8] = assay: as above; conditions: 120 g/10a active ingredient, evaluated 14 days after treatment
How it was run: as §3

Echinochloa crus-galli [9] = assay: as above; conditions: 120 g/10a active ingredient, evaluated 14 days after treatment
How it was run: as §3

southern crabgrass [10] = assay: as above; conditions: 120 g/10a active ingredient, evaluated 14 days after treatment
How it was run: as §3

Amaranthus viridis [11] = assay: Test Example 4: herbicidal effect test by treatment of leave and stem in dry field farming (seven days after seeding); conditions: 120 g/10a active ingredient; emulsion sprayed seven days after seeding; evaluated 14 days after treatment
How it was run: (§4)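 Weeds were seeded at 20 seeds per species into the top 1 cm of alluvial upland soil in pots, then sprayed 7 days after seeding with water-diluted emulsifiable concentrate at 100 L/10 a, giving 120 g active ingredient/10 a. Duplicate pots; herbicidal rate (%) was 14 days post-treatment, from dry weight versus untreated.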

Chenopodium album [12] = assay: as above; conditions: 120 g/10a active ingredient; emulsion sprayed seven days after seeding; evaluated 14 days after treatment
How it was run: as §4

Echinochloa crus-galli [13] = assay: as above; conditions: 120 g/10a active ingredient; emulsion sprayed seven days after seeding; evaluated 14 days after treatment
How it was run: as §4

southern crabgrass [14] = assay: as above; conditions: 120 g/10a active ingredient; emulsion sprayed seven days after seeding; evaluated 14 days after treatment
How it was run: as §4

Structure (SMILES) | Herbicidal rate (%) Echinochloa crus-galli (Echinochloa crus-galli [1]) [%] | Herbicidal rate (%) Scirpus juncoides (Scirpus juncoides [2]) [%] | Herbicidal rate (%) Lindernia pyxidaria [3] [%] | Herbicidal rate (%) Monochoria vaginalis [3] [%] | Herbicidal rate (%) Echinochloa crus-galli (Echinochloa crus-galli [4]) [%] | Herbicidal rate (%) Scirpus juncoides (Scirpus juncoides [5]) [%] | Herbicidal rate (%) Lindernia pyxidaria [6] [%] | Herbicidal rate (%) Monochoria vaginalis [6] [%] | herbicidal rate, Amaranthus viridis (Amaranthus viridis [7]) [%] | herbicidal rate, Chenopodium album (Chenopodium album [8]) [%] | herbicidal rate, Echinochloa crus-galli (Echinochloa crus-galli [9]) [%] | herbicidal rate, southern crabgrass (southern crabgrass [10]) [%] | herbicidal effect (herbicidal rate), Amaranthus viridis (Amaranthus viridis [11]) [%] | herbicidal effect (herbicidal rate), Chenopodium album (Chenopodium album [12]) [%] | herbicidal effect (herbicidal rate), Echinochloa crus-galli (Echinochloa crus-galli [13]) [%] | herbicidal effect (herbicidal rate), southern crabgrass (southern crabgrass [14]) [%]
CSCCn1oc(=O)c(Cc2ccccc2N(C(C)=O)S(=O)(=O)C(F)(F)F)c1C [Compound 1-305] | 90 | 90 | 90 | 90 | 90 | 90 | 90 | 90 | 90 | 90 | 90 | 90 | 40 | 40 | 90 | 90
Cc1c(Cc2cc(F)ccc2N(S(=O)(=O)C(F)(F)F)S(=O)(=O)C(F)(F)F)c(=O)on1CC(C)C [Compound 1-29] | 100 | 90 | 90 | 90 | 100 | 90 | 80 | 90 | 40 | 40 | 70 | 70 | 60 | 0 | 60 | 40
CCCC(CC)n1oc(=O)c(Cc2ccccc2N(S(=O)(=O)C(F)(F)F)S(=O)(=O)C(F)(F)F)c1C (stereo not shown) [Compound 1-971] | 100 | 100 | 100 | 100 | 100 | 90 | 80 | 90 | 80 | 60 | 90 | 80 | 40 | 50 | 90 | 90
CCCCC(CC)Cn1oc(=O)c(Cc2ccccc2NS(=O)(=O)C(F)(F)F)c1C (stereo not shown) [Compound 1-130] | 100 | 100 | 100 | 100 | 100 | 80 | 90 | 90 | 40 | 50 | 90 | 70 | 50 | 40 | 60 | 60
CCC(C)Cn1oc(=O)c(Cc2ccccc2N(C(C)=O)S(=O)(=O)C(F)(F)F)c1C (stereo not shown) [Compound 1-300] | 100 | 90 | 80 | 70 | 100 | 80 | 70 | 90 | 80 | 60 | 90 | 100 | 70 | 60 | 90 | 90
Cc1c(Cc2ccccc2N(C(=O)OCc2ccccc2)S(=O)(=O)C(F)(F)F)c(=O)on1C(C)(C)C [Compound 1-781] | 90 | 90 | 90 | 90 | 90 | 90 | 90 | 90 | 90 | 90 | 90 | 90 | 40 | 40 | 90 | 90
CCC(=O)N(c1ccccc1Cc1c(C)n(C(C)(C)C)oc1=O)S(=O)(=O)C(F)(F)F [Compound 1-315] | 90 | 90 | 90 | 90 | 90 | 90 | 90 | 90 | 90 | 90 | 90 | 90 | 40 | 40 | 90 | 90
CCC(CC)n1oc(=O)c(Cc2ccccc2NS(=O)(=O)C(F)(F)F)c1C [Compound 1-103] | 100 | 90 | 80 | 100 | 90 | 80 | 60 | 80 | 100 | 100 | 100 | 100 | 90 | 40 | 90 | 90
CCC(CC)n1oc(=O)c(Cc2ccccc2N(C(=O)C2CC2)S(=O)(=O)C(F)(F)F)c1C [Compound 1-405] | 90 | 90 | 90 | 90 | 90 | 90 | 90 | 90 | 90 | 90 | 90 | 90 | 40 | 40 | 90 | 90
CCS(=O)(=O)N(c1ccccc1Cc1c(C)n(C(C)COC)oc1=O)S(=O)(=O)C(F)(F)F (stereo not shown) [Compound 1-915] | 90 | 90 | 90 | 90 | 90 | 90 | 90 | 90 | 90 | 90 | 90 | 90 | 40 | 40 | 90 | 90
